Converted amounts (≈) assume the structure as drawn.
What was measured:
Test in all cases: In vitro antibacterial evaluation: minimum inhibitory concentration (MIC), broth dilution method
Assay type in all cases: cell-based
[1] = test system: Streptococcus sp.; conditions: 18 hours at 35° C.
In short: (§1)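 Inoculum: 5×10^5 CFU/mL. Range: 64-0.06 μg/mL. Medium: Muller-Hinton II […]; NCCLS M7-A2 broth dilution. Endpoint: lowest concentration inhibiting growth. Strains include methicillin-, penicillin- and/or vancomycin-resistant clinical isolates.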

[2] = test system: Enterococcus sp.; conditions: 18 hours at 35° C.
In short: as §1

[3] = test system: Escherichia coli; conditions: 18 hours at 35° C.
In short: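 Following NCCLS approved standard M7-A2, compounds are serially diluted from 64 to 0.06 μg/mL in Muller-Hinton II […] and inoculated at 5×10^5 CFU/mL; the MIC is the minimum concentration at which growth is inhibited.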

[4] = test system: Staphylococcus sp.; conditions: for MIC Staphylococcus aureus (ATCC 29213): strain ATCC 29213; for MIC Staphylococcus aureus (GC 1131): strain GC 1131; for MIC Staphylococcus aureus (GC 3051): strain GC 3051; for MIC Staphylococcus aureus (GC 3053): strain GC 3053; for MIC Staphylococcus aureus (GC 4541): strain GC 4541; for MIC Staphylococcus aureus (GC 4542): strain GC 4542; for MIC Staphylococcus aureus-SMITH (GC 4543): strain GC 4543; for MIC Staphylococcus aureus (GC 4544): strain GC 4544; for MIC Staphylococcus aureus (GC 4545): strain GC 4545; for MIC Staphylococcus haemolyticus (GC 4546): strain GC 4546; for MIC Coagulase Negative Staphylococcus (GC 4547): strain GC 4547; for MIC Coagulase Negative Staphylococcus (GC 4548): strain GC 4548; for MIC Coagulase Negative Staphylococcus (GC 4549): strain GC 4549; for MIC Coagulase Negative Staphylococcus (GC 4551): strain GC 4551
In short: as §1

[5] = Streptococcus agalactiae (GC 4564)
[6] = Streptococcus pneumoniae (ATCC 6301)
[7] = Streptococcus pneumoniae (GC 1894)
[8] = Streptococcus pneumoniae (GC 4565)
[9] = Streptococcus pyogenes (GC 4563)
[10] = broth dilution, inoculum 5×10^5 CFU/mL
[11] = Enterococcus faecalis (ATCC 29212)
[12] = Enterococcus faecalis (GC 2242)
[13] = Enterococcus faecalis (GC 2691)
[14] = Enterococcus faecalis (GC 3059)
[15] = Enterococcus faecalis (GC 4552)
[16] = Enterococcus faecalis (GC 4553)
[17] = Enterococcus faecalis (GC 4554)
[18] = Enterococcus faecalis (GC 6189)

## CC(c1ccccc1)C1NC(=O)CNC(=O)C(CO)NC(=O)C(C(O)C2CNC(=N)N2C2OC(CO)C(O)C(O)C2O)NC(=O)C(C(O)C2CNC(=N)N2)NC(=O)C(Cc2ccc(OC3OC(CO)C(OC4OC5COC(C)(c6ccc(F)cc6)OC5C(O)C4O)C(O)C3O)cc2)NC1=O (stereo not drawn) [Example 216, Cyclo[glycyl-β-methylphenylalanyl-O-[4-O-[4,6-O-(4-fluoro-α-methylbenzylidene)hexopyranosyl]hexopyranosyl]tyrosyl-3-(2-iminoimidazolidin-4-yl)seryl-3-(3-hexopyranosyl-2-iminoimidazolidin-4-yl)serylseryl]]
[1]; [5]
  MIC Streptococcus agalactiae (GC 4564): 0.5 µg/mL (≈ 0.353 µM)
[1]; [6]
  MIC Streptococcus pneumoniae (ATCC 6301): 0.25 µg/mL (≈ 0.177 µM)
[1]; [7]
  MIC Streptococcus pneumoniae (GC 1894): <0.06 µg/mL
[1]; [8]
  MIC Streptococcus pneumoniae (GC 4565): 0.25 µg/mL (≈ 0.177 µM)
[1]; [9]
  MIC Streptococcus pyogenes (GC 4563): 0.5 µg/mL (≈ 0.353 µM)
[1]; [10]
  MIC Streptococcus agalactiae (GC 4564): 0.5 µg/mL (≈ 0.353 µM)
  MIC Streptococcus pneumoniae (ATCC 6301): 0.25 µg/mL (≈ 0.177 µM)
  MIC Streptococcus pneumoniae (GC 1894): <0.06 µg/mL
  MIC Streptococcus pneumoniae (GC 4565): 0.25 µg/mL (≈ 0.177 µM)
  MIC Streptococcus pyogenes (GC 4563): 0.5 µg/mL (≈ 0.353 µM)
[2]; Enterococcus avium (GC 4558)
  MIC Enterococcus avium (GC 4558): 4 µg/mL (≈ 2.83 µM)
[2]; [11]
  MIC Enterococcus faecalis (ATCC 29212): 4 µg/mL (≈ 2.83 µM)
[2]; [12]
  MIC Enterococcus faecalis (GC 2242): 4 µg/mL (≈ 2.83 µM)
[2]; [13]
  MIC Enterococcus faecalis (GC 2691): 4 µg/mL (≈ 2.83 µM)
[2]; [14]
  MIC Enterococcus faecalis (GC 3059): 4 µg/mL (≈ 2.83 µM)
[2]; [15]
  MIC Enterococcus faecalis (GC 4552): 4 µg/mL (≈ 2.83 µM)
[2]; [16]
  MIC Enterococcus faecalis (GC 4553): 4 µg/mL (≈ 2.83 µM)
[2]; [17]
  MIC Enterococcus faecalis (GC 4554): 4 µg/mL (≈ 2.83 µM)
[2]; [18]
  MIC Enterococcus faecalis (GC 6189): 4 µg/mL (≈ 2.83 µM)
[2]; Enterococcus faecium (GC 2243)
  MIC Enterococcus faecium (GC 2243): 4 µg/mL (≈ 2.83 µM)
[2]; Enterococcus faecium (GC 4556)
  MIC Enterococcus faecium (GC 4556): 4 µg/mL (≈ 2.83 µM)
[2]; Enterococcus faecium (GC 4557)
  MIC Enterococcus faecium (GC 4557): 4 µg/mL (≈ 2.83 µM)
[2]; [10]
  MIC Enterococcus avium (GC 4558): 4 µg/mL (≈ 2.83 µM)
  MIC Enterococcus faecalis (ATCC 29212): 4 µg/mL (≈ 2.83 µM)
  MIC Enterococcus faecalis (GC 2242): 4 µg/mL (≈ 2.83 µM)
  MIC Enterococcus faecalis (GC 2691): 4 µg/mL (≈ 2.83 µM)
  MIC Enterococcus faecalis (GC 3059): 4 µg/mL (≈ 2.83 µM)
  MIC Enterococcus faecalis (GC 4552): 4 µg/mL (≈ 2.83 µM)
  MIC Enterococcus faecalis (GC 4553): 4 µg/mL (≈ 2.83 µM)
  MIC Enterococcus faecalis (GC 4554): 4 µg/mL (≈ 2.83 µM)
  MIC Enterococcus faecalis (GC 6189): 4 µg/mL (≈ 2.83 µM)
  MIC Enterococcus faecium (GC 2243): 4 µg/mL (≈ 2.83 µM)
  MIC Enterococcus faecium (GC 4556): 4 µg/mL (≈ 2.83 µM)
  MIC Enterococcus faecium (GC 4557): 4 µg/mL (≈ 2.83 µM)
[3]
  MIC Escherichia coli (ATCC 25922): 32 µg/mL (≈ 22.6 µM)
  MIC Escherichia coli (GC 4559): 16 µg/mL (≈ 11.3 µM)
  MIC Escherichia coli (GC 4560): 2 µg/mL (≈ 1.41 µM)
[4]
  MIC Staphylococcus aureus (ATCC 29213): 2 µg/mL (≈ 1.41 µM)
  MIC Staphylococcus aureus (GC 1131): 2 µg/mL (≈ 1.41 µM)
  MIC Staphylococcus aureus (GC 3051): 2 µg/mL (≈ 1.41 µM)
  MIC Staphylococcus aureus (GC 3053): 2 µg/mL (≈ 1.41 µM)
  MIC Staphylococcus aureus (GC 4541): 1 µg/mL (≈ 0.707 µM)
  MIC Staphylococcus aureus (GC 4542): 1 µg/mL (≈ 0.707 µM)
  MIC Staphylococcus aureus-SMITH (GC 4543): 2 µg/mL (≈ 1.41 µM)
  MIC Staphylococcus aureus (GC 4544): 2 µg/mL (≈ 1.41 µM)
  MIC Staphylococcus aureus (GC 4545): 1 µg/mL (≈ 0.707 µM)
  MIC Staphylococcus haemolyticus (GC 4546): 1 µg/mL (≈ 0.707 µM)
  MIC Coagulase Negative Staphylococcus (GC 4547): 2 µg/mL (≈ 1.41 µM)
  MIC Coagulase Negative Staphylococcus (GC 4548): 1 µg/mL (≈ 0.707 µM)
  MIC Coagulase Negative Staphylococcus (GC 4549): 1 µg/mL (≈ 0.707 µM)
  MIC Coagulase Negative Staphylococcus (GC 4551): 2 µg/mL (≈ 1.41 µM)
[4]; strain GC 6257
  MIC Coagulase Negative Staphylococcus (GC 6257): 1 µg/mL (≈ 0.707 µM)

## CC(c1ccccc1)C1NC(=O)CNC(=O)C(CO)NC(=O)C(C(O)C2CNC(=N)N2C2OC(CO)C(O)C(O)C2O)NC(=O)C(C(O)C2CNC(=N)N2)NC(=O)C(Cc2ccc(OC3OC(CO)C(OC4OC5COC6(CCSCC6)OC5C(O)C4O)C(O)C3O)cc2)NC1=O (stereo not drawn) [Example 217, Cyclo[glycyl-β-methylphenylalanyl-O-[4-O-[4,6-O-(tetrahydrothiopyran-4-ylidene)hexopyranosyl]hexopyranosyl]tyrosyl-3-(2-iminoimidazolidin-4-yl)seryl-3-(3-hexopyranosyl-2-iminoimidazolidin-4-yl)serylseryl]]
[1]; [5]
  MIC Streptococcus agalactiae (GC 4564): 2 µg/mL (≈ 1.44 µM)
[1]; [6]
  MIC Streptococcus pneumoniae (ATCC 6301): 1 µg/mL (≈ 0.718 µM)
[1]; [7]
  MIC Streptococcus pneumoniae (GC 1894): 0.25 µg/mL (≈ 0.179 µM)
[1]; [8]
  MIC Streptococcus pneumoniae (GC 4565): 0.5 µg/mL (≈ 0.359 µM)
[1]; [9]
  MIC Streptococcus pyogenes (GC 4563): 1 µg/mL (≈ 0.718 µM)
[1]; [10]
  MIC Streptococcus agalactiae (GC 4564): 2 µg/mL (≈ 1.44 µM)
  MIC Streptococcus pneumoniae (ATCC 6301): 1 µg/mL (≈ 0.718 µM)
  MIC Streptococcus pneumoniae (GC 1894): 0.25 µg/mL (≈ 0.179 µM)
  MIC Streptococcus pneumoniae (GC 4565): 0.5 µg/mL (≈ 0.359 µM)
  MIC Streptococcus pyogenes (GC 4563): 1 µg/mL (≈ 0.718 µM)
[2]; Enterococcus avium (GC 4558)
  MIC Enterococcus avium (GC 4558): 16 µg/mL (≈ 11.5 µM)
[2]; [11]
  MIC Enterococcus faecalis (ATCC 29212): 16 µg/mL (≈ 11.5 µM)
[2]; [12]
  MIC Enterococcus faecalis (GC 2242): 16 µg/mL (≈ 11.5 µM)
[2]; [13]
  MIC Enterococcus faecalis (GC 2691): 16 µg/mL (≈ 11.5 µM)
[2]; [14]
  MIC Enterococcus faecalis (GC 3059): 32 µg/mL (≈ 23 µM)
[2]; [15]
  MIC Enterococcus faecalis (GC 4552): 16 µg/mL (≈ 11.5 µM)
[2]; [16]
  MIC Enterococcus faecalis (GC 4553): 32 µg/mL (≈ 23 µM)
[2]; [17]
  MIC Enterococcus faecalis (GC 4554): 32 µg/mL (≈ 23 µM)
[2]; [18]
  MIC Enterococcus faecalis (GC 6189): 16 µg/mL (≈ 11.5 µM)
[2]; Enterococcus faecium (GC 2243)
  MIC Enterococcus faecium (GC 2243): 16 µg/mL (≈ 11.5 µM)
[2]; Enterococcus faecium (GC 4556)
  MIC Enterococcus faecium (GC 4556): 16 µg/mL (≈ 11.5 µM)
[2]; Enterococcus faecium (GC 4557)
  MIC Enterococcus faecium (GC 4557): 8 µg/mL (≈ 5.74 µM)
[2]; [10]
  MIC Enterococcus avium (GC 4558): 16 µg/mL (≈ 11.5 µM)
  MIC Enterococcus faecalis (ATCC 29212): 16 µg/mL (≈ 11.5 µM)
  MIC Enterococcus faecalis (GC 2242): 16 µg/mL (≈ 11.5 µM)
  MIC Enterococcus faecalis (GC 2691): 16 µg/mL (≈ 11.5 µM)
  MIC Enterococcus faecalis (GC 3059): 32 µg/mL (≈ 23 µM)
  MIC Enterococcus faecalis (GC 4552): 16 µg/mL (≈ 11.5 µM)
  MIC Enterococcus faecalis (GC 4553): 32 µg/mL (≈ 23 µM)
  MIC Enterococcus faecalis (GC 4554): 32 µg/mL (≈ 23 µM)
  MIC Enterococcus faecalis (GC 6189): 16 µg/mL (≈ 11.5 µM)
  MIC Enterococcus faecium (GC 2243): 16 µg/mL (≈ 11.5 µM)
  MIC Enterococcus faecium (GC 4556): 16 µg/mL (≈ 11.5 µM)
  MIC Enterococcus faecium (GC 4557): 8 µg/mL (≈ 5.74 µM)
[3]
  MIC Escherichia coli (ATCC 25922): 64 µg/mL (≈ 45.9 µM)
  MIC Escherichia coli (GC 4559): 32 µg/mL (≈ 23 µM)
  MIC Escherichia coli (GC 4560): 2 µg/mL (≈ 1.44 µM)
[4]
  MIC Staphylococcus aureus (ATCC 29213): 4 µg/mL (≈ 2.87 µM)
  MIC Staphylococcus aureus (GC 1131): 4 µg/mL (≈ 2.87 µM)
  MIC Staphylococcus aureus (GC 3051): 4 µg/mL (≈ 2.87 µM)
  MIC Staphylococcus aureus (GC 3053): 8 µg/mL (≈ 5.74 µM)
  MIC Staphylococcus aureus (GC 4541): 4 µg/mL (≈ 2.87 µM)
  MIC Staphylococcus aureus (GC 4542): 4 µg/mL (≈ 2.87 µM)
  MIC Staphylococcus aureus-SMITH (GC 4543): 2 µg/mL (≈ 1.44 µM)
  MIC Staphylococcus aureus (GC 4544): 8 µg/mL (≈ 5.74 µM)
  MIC Staphylococcus aureus (GC 4545): 4 µg/mL (≈ 2.87 µM)
  MIC Staphylococcus haemolyticus (GC 4546): 2 µg/mL (≈ 1.44 µM)
  MIC Coagulase Negative Staphylococcus (GC 4547): 4 µg/mL (≈ 2.87 µM)
  MIC Coagulase Negative Staphylococcus (GC 4548): 1 µg/mL (≈ 0.718 µM)
  MIC Coagulase Negative Staphylococcus (GC 4549): 2 µg/mL (≈ 1.44 µM)
  MIC Coagulase Negative Staphylococcus (GC 4551): 8 µg/mL (≈ 5.74 µM)

From US8247211B2, “Glycopeptide antibiotics” (American Cyanamid Company, priority 2001, dated 2012)
